This passage reports LD50, pLD50 and I50 results from ChEMBL document CHEMBL3045238, “Structure-Activity Studies of Insecticidal 2-Methoxy-1, 3, 2-oxazaphospholidine 2-Sulfides against Musca domestica and Tribolium castaneum” (J Pestic Sci, 1990).

The test system of experiment [1] is Musca domestica. In words: Insecticidal activity against female Musca domestica (house fly) assessed as mortality compound topically applied to the abdomen measured per fly after 24 hr. Format: functional.
Experiment [2] has as its system Tribolium castaneum. Put plainly: Insecticidal activity against fourth-instar Tribolium castaneum (red flour beetle) assessed as inhibition of larval weight gain at 30 degC measured after 2 days by feeding method. Format: functional.

SMILES strings stand for the structures.

For `COP1(=S)NCC(c2ccccc2Cl)O1` (configuration not stated), in experiment [1], the LD50 turned out to be 0.53 µg and the pLD50 is reported as 2.7. Further, the I50 in experiment [2] is listed as 72 ppm.
In the case of `COc1ccc(C2CNP(=S)(OC)O2)cc1OC` (configuration not stated), the LD50 in experiment [1] was over 1 µg. For the same compound, the I50 in experiment [2] is over 100 ppm.
For `COP1(=S)NCC(c2cccc([N+](=O)[O-])c2)O1` (configuration not stated), the LD50 in experiment [1] is over 1 µg. The I50 in experiment [2] is over 100 ppm.
For the compound `COP1(=S)NCC(c2cccc(Br)c2)O1` (configuration not stated), in experiment [1], the LD50 was determined as 0.2 µg and the pLD50 came to 3.19. In experiment [2], the I50 was 59 ppm.
As to `COP1(=S)NCC(c2ccc(Br)cc2)O1` (configuration not stated), in experiment [1], the LD50 was determined as 0.21 µg and the pLD50 was found to be 3.13. In experiment [2], the I50 is reported as over 100 ppm.
Consider `COP1(=S)NCC(c2ccc(C(F)(F)F)cc2)O1` (configuration not stated), for which, in experiment [1], the LD50 was over 1 µg. Besides, the I50 in experiment [2] is given as over 100 ppm.
For `COP1(=S)NCC(C)(c2cccc(Br)c2)O1` (configuration not stated), in that order: 0.29 µg and over 100 ppm.
With `COP1(=S)NCC(c2cccc(F)c2)O1` (configuration not stated), in experiment [1], the LD50 was 0.16 µg and the pLD50 is 3.19. Further, the I50 in experiment [2] is reported as over 100 ppm.
On to `COP1(=S)NCC(c2cccc(C(F)(F)F)c2)O1` (configuration not stated), for which, in experiment [1], the LD50 is over 1 µg. The I50 in experiment [2] is recorded as over 100 ppm.
Turning to `COP1(=S)NCC(c2ccccc2)(C(C)C)O1` (configuration not stated), the LD50 in experiment [1] was over 1 µg. In experiment [2], the I50 was over 100 ppm.
For `COP1(=S)NCC(c2cccc3ccccc23)O1` (configuration not stated), in that order: 0.68 µg and 25 ppm.
Turning to `COP1(=S)NCC(c2ccc(Cl)cc2)O1` (configuration not stated), in experiment [1], the LD50 was 0.16 µg and the pLD50 is given as 3.22. Moreover, in experiment [2], the I50 is over 100 ppm.
For `COP1(=S)NCC(c2cc(C)ccc2C)O1` (configuration not stated), the LD50 in experiment [1] came to 0.23 µg. For the same compound, the I50 in experiment [2] is given as 84 ppm.
For `COP1(=S)NCC2(CCCCC2)O1` (configuration not stated), in that order: over 1 µg and over 100 ppm.
For `COP1(=S)NCC(c2ccc(C)cc2C)O1` (configuration not stated), in that order: 0.73 µg and 33 ppm.
With `COc1ccc(OC)c(C2CNP(=S)(OC)O2)c1` (configuration not stated), in experiment [1], the LD50 is over 1 µg. In addition, in experiment [2], the I50 was found to be 22 ppm.
`COP1(=S)NCC(C(C)c2ccccc2)O1` (configuration not stated): in experiment [1], the LD50 is over 1 µg. The I50 in experiment [2] is given as over 100 ppm.
Consider `COP1(=S)NCC(c2ccccc2)(c2ccccc2)O1` (configuration not stated), for which the LD50 in experiment [1] was over 1 µg. Besides, the I50 in experiment [2] is recorded as over 100 ppm.
For `COP1(=S)NCC(c2ccc3ccccc3c2)O1` (configuration not stated), in that order: 0.64 µg and 11 ppm.
For `COP1(=S)NCC(c2ccccc2C(F)(F)F)O1` (configuration not stated), in that order: over 1 µg and over 100 ppm.
For the compound `COP1(=S)NCC(c2ccc(C(C)C)cc2)O1` (configuration not stated), in experiment [1], the LD50 worked out at 0.42 µg and the pLD50 was determined as 2.81. Moreover, the I50 in experiment [2] was 5.2 ppm.
`COP1(=S)NCC(c2ccc(-c3ccccc3)cc2)O1` (configuration not stated): the LD50 in experiment [1] was over 1 µg. Besides, the I50 in experiment [2] was determined as 62 ppm.
For `COc1cccc(C2(C)CNP(=S)(OC)O2)c1` (configuration not stated), the LD50 in experiment [1] was over 1 µg. Also, the I50 in experiment [2] is given as over 100 ppm.
For `COP1(=S)NCC(C)(c2ccccc2F)O1` (configuration not stated), in that order: 1.26 µg and over 100 ppm.
For `COP1(=S)NCC(C2CCCCC2)O1` (configuration not stated), in that order: over 1 µg and over 100 ppm.
For `COP1(=S)NCC(c2cccc(Oc3ccccc3)c2)O1` (configuration not stated), in that order: over 1 µg and over 100 ppm.
As to `COP1(=S)NCC(c2cc(Cl)cc(Cl)c2)O1` (configuration not stated), the LD50 in experiment [1] is over 1 µg. The I50 in experiment [2] was over 100 ppm.
For the compound `COP1(=S)NCC2(CCCc3ccccc32)O1` (configuration not stated), the LD50 in experiment [1] was over 1 µg. Moreover, in experiment [2], the I50 is over 100 ppm.
On to `COP1(=S)NCC2(O1)C1CCC(C1)C2(C)C` (configuration not stated), for which the LD50 in experiment [1] was over 1 µg. Further, the I50 in experiment [2] is over 100 ppm.
For the compound `COP1(=S)NCC(c2ccc(F)cc2)O1` (configuration not stated), in experiment [1], the LD50 worked out at 0.083 µg and the pLD50 is reported as 3.47. For the same compound, the I50 in experiment [2] is given as over 100 ppm.
Consider `COP1(=S)NCC(C)(c2cccc3ccccc23)O1` (configuration not stated), for which the LD50 in experiment [1] was over 1 µg. Besides, the I50 in experiment [2] is over 100 ppm.
`COP1(=S)NCC(c2ccc(F)cc2F)O1` (configuration not stated): the LD50 in experiment [1] stood at 0.35 µg. In addition, in experiment [2], the I50 is on record as over 100 ppm.
For `COc1cc(OC)cc(C2CNP(=S)(OC)O2)c1` (configuration not stated), in that order: 1.12 µg and over 100 ppm.
For `COc1ccccc1C1CNP(=S)(OC)O1` (configuration not stated), in that order: over 1 µg and 41 ppm.
For `COP1(=S)NCC(c2cccc(F)c2F)O1` (configuration not stated), in that order: over 1 µg and over 100 ppm.
Take `COP1(=S)NCC(c2cc(F)cc(F)c2)O1` (configuration not stated): the LD50 in experiment [1] is over 1 µg. Moreover, in experiment [2], the I50 is reported as over 100 ppm.
For `COP1(=S)NCC(CCc2ccccc2)O1` (configuration not stated), in that order: over 1 µg and over 100 ppm.
Consider `COP1(=S)NCC(C)(c2ccccc2)O1` (configuration not stated), for which, in experiment [1], the LD50 stood at 0.88 µg. Also, the I50 in experiment [2] was over 100 ppm.
Regarding `COP1(=S)NCC2(CCCC(C)C2)O1` (configuration not stated), the LD50 in experiment [1] is over 1 µg. For the same compound, the I50 in experiment [2] is reported as over 100 ppm.
As for `COP1(=S)NCC(c2ccccc2F)O1` (configuration not stated), in experiment [1], the LD50 stood at 0.14 µg and the pLD50 was 3.25. In addition, the I50 in experiment [2] is on record as 41 ppm.
Take `COP1(=S)NCC(c2ccc([N+](=O)[O-])cc2)O1` (configuration not stated): the LD50 in experiment [1] was over 1 µg. Further, in experiment [2], the I50 is listed as over 100 ppm.
`COP1(=S)NCC(Cc2ccccc2)O1` (configuration not stated): the LD50 in experiment [1] was over 1 µg. For the same compound, in experiment [2], the I50 is recorded as over 100 ppm.
For `COP1(=S)NCC(c2ccc3c(c2)OCO3)O1` (configuration not stated), in that order: over 1 µg and over 100 ppm.
For the compound `COP1(=S)NCC(c2ccccc2Br)O1` (configuration not stated), in experiment [1], the LD50 stood at 0.5 µg and the pLD50 stood at 2.79. Also, the I50 in experiment [2] amounted to 49 ppm.
For `COP1(=S)NCC(c2cccc(Cl)c2)O1` (configuration not stated), in experiment [1], the LD50 amounted to 0.24 µg and the pLD50 was determined as 3.04. In addition, the I50 in experiment [2] was over 100 ppm.
As for `COP1(=S)NCC(c2c(F)cccc2F)O1` (configuration not stated), the LD50 in experiment [1] worked out at 0.82 µg. For the same compound, in experiment [2], the I50 was over 100 ppm.
For `COP1(=S)NCC(c2c(Cl)cccc2Cl)O1` (configuration not stated), in that order: over 1 µg and 49 ppm.
For `COP1(=S)NCC2(CC3CCC2(C)C3(C)C)O1` (configuration not stated), the LD50 in experiment [1] was over 1 µg. Moreover, in experiment [2], the I50 is reported as over 100 ppm.
For `COP1(=S)NCC(c2cccc(Cl)c2Cl)O1` (configuration not stated), in that order: over 1 µg and over 100 ppm.
For `COP1(=S)NCC(c2ccc(Cl)cc2Cl)O1` (configuration not stated), in that order: 0.8 µg and over 100 ppm.
Turning to `COP1(=S)NCC(c2cccc(C)c2)O1` (configuration not stated), the LD50 in experiment [1] was over 1 µg. For the same compound, the I50 in experiment [2] stood at 15 ppm.
As for `COP1(=S)NCC2(Cc3ccccc3C2)O1` (configuration not stated), the LD50 in experiment [1] was over 1 µg. Further, the I50 in experiment [2] was over 100 ppm.
For `COP1(=S)NCC(c2ccc(Cl)c(Cl)c2)O1` (configuration not stated), in that order: over 1 µg and over 100 ppm.
Regarding `COc1cc(C2CNP(=S)(OC)O2)cc(OC)c1OC` (configuration not stated), the LD50 in experiment [1] is over 1 µg. Also, in experiment [2], the I50 is recorded as over 100 ppm.
Consider `COP(=S)(OC)Oc1ccc([N+](=O)[O-])c(C)c1` [FENITROTHION], for which the LD50 in experiment [1] was found to be 0.051 µg. Further, the I50 in experiment [2] was found to be 4.7 ppm.
For `COP1(=S)NCC(c2ccc(F)c(F)c2)O1` (configuration not stated), in that order: 0.59 µg and over 100 ppm.
For `COc1cccc(C2CNP(=S)(OC)O2)c1OC` (configuration not stated), in that order: 0.53 µg and 6.6 ppm.
Regarding `COP1(=S)NCC(c2ccccc2C)O1` (configuration not stated), in experiment [1], the LD50 came to 0.27 µg and the pLD50 was 2.95. In experiment [2], the I50 was 35 ppm.
For `CCc1ccc(C2CNP(=S)(OC)O2)cc1` (configuration not stated), in that order: 0.22 µg, 3.07 and 3.7 ppm.
Regarding `COP1(=S)NCC(C2CC=CCC2)O1` (configuration not stated), the LD50 in experiment [1] was over 1 µg. In addition, in experiment [2], the I50 is given as over 100 ppm.
As for `CCOC(OCC)C1(c2ccccc2)CNP(=S)(OC)O1` (configuration not stated), the LD50 in experiment [1] is over 1 µg. In addition, the I50 in experiment [2] is over 100 ppm.
As to `COP1(=S)NCC(c2ccc(C)cc2)O1` (configuration not stated), in experiment [1], the LD50 is 0.084 µg and the pLD50 was found to be 3.46. For the same compound, the I50 in experiment [2] came to 5.5 ppm.
Take `COP1(=S)NCC(c2cc(F)ccc2F)O1` (configuration not stated): in experiment [1], the LD50 was found to be 0.32 µg. Besides, the I50 in experiment [2] was over 100 ppm.
As for `COP1(=S)NCC(c2ccccc2)O1` (configuration not stated), in experiment [1], the LD50 amounted to 0.035 µg and the pLD50 worked out at 3.82. Further, the I50 in experiment [2] is 43 ppm.
For `COc1cccc(C2CNP(=S)(OC)O2)c1` (configuration not stated), in that order: 0.18 µg, 3.16 and 46 ppm.
For the compound `COP1(=S)NCC(C)(c2cccc(C)c2)O1` (configuration not stated), in experiment [1], the LD50 was over 1 µg. Besides, in experiment [2], the I50 is over 100 ppm.
